pIC50: −log10 of the molar value. One block for each compound: values may come before it.
How the values were obtained:
PC3-M cells = assay: Boyden chamber cell invasion assay, PC3-M cells; format: cell-based, human; settings: PC3-M cells, 10 µM compound, 3 days
Description: Boyden chamber cell invasion assays were performed as previously described by us[30], using either denatured collagen (BD Biosciences) or type IV human collagen (BD Biosciences), with all experiments repeated, each in N = 4 replicates. In some experiments, as indicated, cells were transfected with an expression plasmid, using Lipofectamine 2000™ (Invitrogen), or with siRNA, using DharmaFect Duo (Thermo Scientific) and co-transfected with β-Galactosidase (Plasmid pCMV•SPORT-βgal; Life Technology). […]
For cell invasion, PC3-M cells […]
were treated with 10 µM compound for a total of 3 days, and cell invasion assays were run at the end of the 3 day period, in the presence of compound. Values are the mean±SEM of three separate experiments, each run in replicates of N=3. […]
assays were performed with PC3-M cells. Values are the mean±SEM of a single experiment, in replicates of N=4, repeated at least once (also N=4). […]

[1] = system: protein phosphorylation in PC3-M and PC3 cells; assay: KinomeView phospho-motif antibody screen; format: cell-based, human; settings: 10 µM, 3 days, ± TGFβ
Description: The Kinoview™ and PhosphoScan™ assays were performed by Cell Signaling Technology Inc.
Supplementary Figure 10. Proteomic analysis of the effects of KBU2046 on the kinome. (a-c) Screening for effects on the kinome. PC3-M cells were pre-treated with 10 µM KBU2046, genistein or vehicle control for 3 days, then with ± TGFβ, as indicated. Resultant cell lysate, as well as lysate from tumors from mice treated with 150 mg/kg KBU2046 or control mice (from manuscript Figure 2a), were then probed with the KinomeView® panel of antibodies by Western blot. In instances where KBU2046 was inhibiting protein phosphorylation in cells and in tumors, a repeat experiment of PC3-M cells was conducted (Experiment #2). In addition to including PC3-M cells, as in Experiment #1, Experiment #2 expanded to examine effects on PC3 cells. (a) The identification of an 83 kDa band of interest (red arrows). This constitutes the only change […]
as in tumor tissue. […] (c) All […]
other Western blots of phospho-motif antibodies that were evaluated on initial screen. NI = tumor not informative; this denotes a tumor sample that yielded an abnormal coomassie blue staining pattern. Data from this sample was therefore not considered further.
(also on this page, place not known: cat #C32G12; tPE cat #2981; sRXY, FXs NI NI cat #2351; tXR cat #23C8D12; RXRXX(s/t) NI NI)
(1 picture or pasted object on this page, not shown here)

[2] = Three-day MTT cell growth inhibition assay, 1532NPTX; format: cell-based, human; settings: human, 1532NPTX cells
1532NPTX = assay: as above; format: cell-based, human; settings: Homo sapiens, 72 h, 3 days
PC3M = assay: Three-day MTT cell growth inhibition assay, PC3M; format: cell-based, human; settings: Homo sapiens, PC-3M, 72 h, PC3M
Text: (§1) Assays were in replicates of N = 3, and were repeated. […]
(§2) Values are the mean±SEM of a single experiment, in
(§3) replicates of N=4, repeated at least once (also N=4).
(§4) Supplementary Figure 1b. Synthetic round #2.

[3] = Three-day MTT cell growth inhibition assay, PC3M; format: cell-based, human; settings: human; PC3M; 3 days
Text: as §1, §2, §3, §4

MKK4 = MKK4 (Homo sapiens, UniProt P45985); set-up: method as in PMID 19638505; settings: low nanomolar concentrations; cited from earlier work
[4] = system: human PCa PC3-M cell orthotopic implants; set-up: method as in PMID 18339885; settings: murine orthotopic model; cited from earlier work
[5] = Three-day MTT cell growth inhibition assay, 1542CPTX; format: cell-based, human; settings: human, 1542CPTX cells
1542CPTX = assay: as above; format: cell-based, human; settings: Homo sapiens, 72 h, 3 days
1542NPTX = assay: Three-day MTT cell growth inhibition assay, 1542NPTX; format: cell-based, human; settings: Homo sapiens, 72 h, 3 days
[6] = as above; format: cell-based, human; settings: human, 1542NPTX cells
[7] = system: matrix metalloproteinase 2 (MMP-2); set-up: method as in PMID 19638505; settings: prospective human trial; cited from earlier work
[8] = system: human prostate cells (PC3, PC3-M, 1532NPTX, 1542NPTX, 1532CPTX, 1542CPTX); set-up: method as in PMID 15833883; settings: human PCa cells, nanomolar concentrations; cited from earlier work
[9] = Three-day MTT cell growth inhibition assay, 1532CPTX; format: cell-based, human; settings: human, 1532CPTX cells
1532CPTX = assay: as above; format: cell-based, human; settings: Homo sapiens, 72 h, 3 days
[10] = Three-day MTT cell growth inhibition assay, PC3; format: cell-based, human; settings: human, PC3 cells
PC3 = assay: Three-day MTT cell growth inhibition assay, PC3; format: cell-based, human; settings: Homo sapiens, PC-3, 72 h, 3 days
over 9000 human proteins = assay: ProtoArray Human Protein Microarray binding assay; settings: levels >/= 10 fold above background
Description: The ProtoArray® assay, using the Human Protein Microarray platform, was performed by Invitrogen. […]
followed by detection with FITC-streptavidin, and visualization by fluorescent microscopy (with equal exposure times). (d) Protein array hybridization. KBU2046-biotin was hybridized to ProtoArray® Human Protein Microarray’s at 0.5 and 10 µM with and without 10 fold excess free KBU2046. We first sought proteins that met the following criteria, and did so at both 0.5 and 10 µM concentrations of KBU2046-biotin (in the absence of free KBU2046): Z-Score greater than 2.5, Z-Factor greater than 0.5, CI P-value less than 0.05, negative control value <2,000 (relative fluorescence units; RFUs), and a signal/negative control signal of >10 and >5 for 10 µM and 0.5 µM conditions, respectively. This yielded 3 proteins, shown in table, for an initial hit rate of 0.03%. We then required free KBU2046 to inhibit binding by >75%. Of the two remaining candidates, we eliminated isovaleryl-CoA dehydrogenase (ICD). Its binding signal doubled on […]
suspected non-specific binding by the biotin-linker moiety. We deemed cysteine and glycine-rich protein 1 (CSRP1) our top priority protein, though its binding characteristics at 10 µM + free KBU2046 were similar to ICD, albeit not as extreme. We thus evaluated whether KBU2046- […]
There were two additional notable findings from protein array studies. […]

Chain of MKK4 (P45985 whole entry): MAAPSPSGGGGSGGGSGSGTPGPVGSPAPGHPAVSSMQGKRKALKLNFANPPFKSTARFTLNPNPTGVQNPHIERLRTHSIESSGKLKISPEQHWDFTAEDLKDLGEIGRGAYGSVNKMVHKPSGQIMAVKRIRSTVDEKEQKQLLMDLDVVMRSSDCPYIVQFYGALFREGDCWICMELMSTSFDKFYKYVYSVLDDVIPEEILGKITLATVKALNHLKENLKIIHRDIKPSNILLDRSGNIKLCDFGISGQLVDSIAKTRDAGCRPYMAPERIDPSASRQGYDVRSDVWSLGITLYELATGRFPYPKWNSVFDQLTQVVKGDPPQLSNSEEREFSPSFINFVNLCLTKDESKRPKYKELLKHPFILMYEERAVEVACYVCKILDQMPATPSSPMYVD

Structure (SMILES): COc1ccc(-c2coc3cc(OC)cc(O)c3c2=O)cc1 [compound 16]
- anti-invasion activity (PC3-M cells): retains anti-invasion activity

- pIC50 (PC3M; concentration inhibiting cell growth by 50% after 3 days): 4.34
- pIC50 (PC3): 4.38
Structure (SMILES): O=c1c(-c2ccc(O)cc2)coc2cc(O)cc(O)c12 [Genistein, 4′,5,7-trihydroxyisoflavone, reference compound]
- changes in protein phosphorylation [1]: widespread changes in protein phosphorylation
- viability at 3 days, 50 µM [2]: 66.9%
- IC20 (1532NPTX): 23 µM
- pIC50 (1532NPTX): < 4.30
- IC20 (PC3M; concentration inhibiting cell growth by 20% after 3 days): 17.5 µM
- viability at 3 days, 50 µM [3]: 46.2%
- inhibition of MKK4 kinase activity (MKK4): inhibited the kinase activity
- metastasis [4]: inhibit
- viability at 3 days, 50 µM [5]: 77.4%
- IC20 (1542CPTX): 24.7 µM
- pIC50 (1542CPTX): < 4.30
- IC20 (1542NPTX): 18.7 µM
- pIC50 (1542NPTX): < 4.30
- viability at 3 days, 50 µM [6]: 80.5%
- MMP-2 expression in prostate tissue [7]: downregulates
- cell invasion [8]: inhibit human prostate cancer (PCa) cell invasion
- viability at 3 days, 50 µM [9]: 71.7%
- IC20 (1532CPTX): 30.8 µM
- pIC50 (1532CPTX): < 4.30
- viability at 3 days, 50 µM [10]: 39.3%
- IC20 (PC3): 18 µM

Structure (SMILES): CN[C@@H]1C[C@H]2O[C@@](C)([C@@H]1OC)n1c3ccccc3c3c4c(c5c6ccccc6n2c5c31)C(=O)NC4 [staurosporine]
- number of proteins bound (over 9000 human proteins): 214

Structure (SMILES): O=c1c(-c2ccc(O)cc2)coc2cccc(O)c12 [compound 8]
- anti-invasion activity (PC3-M cells): does not affect activity
